# In ChEMBL document CHEMBL1154496, “The pharmacophore of a peptoid VEGF receptor 2 antagonist includes both side chain and main chain residues” (Bioorg Med Chem Lett, 2008):
# Calls of active or inactive are those of the source. The rule behind the calls is not given here. Square brackets hold non-standard residues; d marks the D form. Peptide text beside a SMILES is read from it. * marks the point of attachment. ξ: configuration not given here. X1 = O=C(O)c1cc(N2C(=O)CC(*)C2=O)ccc1-c1c2ccc(=O)cc-2oc2cc(O)ccc12; Gly(N-piperonyl) = O=C(O)CNCc1ccc2c(c1)OCO2; Nrpe = C[C@@H](NCC(=O)O)c1ccccc1; Nleu = CC(C)CNCC(=O)O; Nlys = NCCCCNCC(=O)O; ξC = NC(CS)C(=O)O
# Biological target: Vascular endothelial growth factor receptor 2 (Homo sapiens) (UniProt P35968)
# Sequence (P35968 whole entry, the tested form may be a part): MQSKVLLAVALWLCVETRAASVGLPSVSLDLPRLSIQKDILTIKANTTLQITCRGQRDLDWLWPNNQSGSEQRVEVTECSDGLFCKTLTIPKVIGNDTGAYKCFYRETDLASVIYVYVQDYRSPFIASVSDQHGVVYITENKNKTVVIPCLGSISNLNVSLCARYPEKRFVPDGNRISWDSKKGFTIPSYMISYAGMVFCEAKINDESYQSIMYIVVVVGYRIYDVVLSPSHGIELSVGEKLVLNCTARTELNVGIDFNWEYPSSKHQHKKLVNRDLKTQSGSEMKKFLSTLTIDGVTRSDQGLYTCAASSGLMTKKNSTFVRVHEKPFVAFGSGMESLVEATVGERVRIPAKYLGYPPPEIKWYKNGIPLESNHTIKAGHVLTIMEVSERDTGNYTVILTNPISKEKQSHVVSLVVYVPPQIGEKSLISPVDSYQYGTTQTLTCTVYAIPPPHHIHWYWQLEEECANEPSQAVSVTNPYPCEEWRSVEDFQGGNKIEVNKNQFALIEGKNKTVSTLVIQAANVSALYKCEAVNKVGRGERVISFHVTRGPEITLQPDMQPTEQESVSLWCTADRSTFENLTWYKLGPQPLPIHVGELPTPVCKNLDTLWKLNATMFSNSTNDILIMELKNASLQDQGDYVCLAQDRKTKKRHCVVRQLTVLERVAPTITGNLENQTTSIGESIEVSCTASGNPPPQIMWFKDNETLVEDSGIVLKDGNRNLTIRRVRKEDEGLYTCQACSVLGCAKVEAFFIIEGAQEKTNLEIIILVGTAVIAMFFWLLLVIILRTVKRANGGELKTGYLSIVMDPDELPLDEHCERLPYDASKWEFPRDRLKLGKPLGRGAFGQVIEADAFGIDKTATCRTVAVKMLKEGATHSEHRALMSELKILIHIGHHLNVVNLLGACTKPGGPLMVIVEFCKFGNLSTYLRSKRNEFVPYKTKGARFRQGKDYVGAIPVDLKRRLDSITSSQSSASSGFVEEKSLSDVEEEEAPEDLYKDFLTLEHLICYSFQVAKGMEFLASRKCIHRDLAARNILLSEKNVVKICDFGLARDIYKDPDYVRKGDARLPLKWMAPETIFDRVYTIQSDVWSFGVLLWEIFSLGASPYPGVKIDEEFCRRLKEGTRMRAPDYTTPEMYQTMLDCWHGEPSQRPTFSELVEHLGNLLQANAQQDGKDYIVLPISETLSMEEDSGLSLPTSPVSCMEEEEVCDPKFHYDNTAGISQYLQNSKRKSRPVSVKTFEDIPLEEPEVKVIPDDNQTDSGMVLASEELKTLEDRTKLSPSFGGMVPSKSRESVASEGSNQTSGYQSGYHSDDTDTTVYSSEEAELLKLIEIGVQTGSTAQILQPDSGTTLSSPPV
# Experiment: Binding affinity to VEGFR2 extracellular domain
row,Structure (SMILES),Activity
1,CC(C)CN(CC(=O)N(CCCCN)CC(=O)N(CC(=O)N(CC(=O)N(CCCCN)CC(=O)N(CC(=O)N(CCCCN)CC(=O)N(CCCCN)CC(N)=O)CC(C)C)Cc1ccc2c(c1)OCO2)[C@H](C)c1ccccc1)C(=O)CNCCCCN (H-[Nlys][Nleu][Nlys][Nrpe][Gly(N-piperonyl)][Nlys][Nleu][Nlys][Nlys]-NH2),Active
2,CC(C)CN(CC(=O)N(CCCCN)CC(=O)N(CC(=O)NC(CSC1CC(=O)N(c2ccc(-c3c4ccc(=O)cc-4oc4cc(O)ccc34)c(C(=O)O)c2)C1=O)C(N)=O)[C@H](C)c1ccccc1)C(=O)CN (stereo partly drawn) (H-G[Nleu][Nlys][Nrpe][ξC](X1)-NH2),inactive
3,CC(C)CN(CC(=O)N(CCCCN)CC(=O)N(CC(=O)NCC(=O)NCC(=O)NCC(=O)NCC(=O)NCC(=O)NC(CSC1CC(=O)N(c2ccc(-c3c4ccc(=O)cc-4oc4cc(O)ccc34)c(C(=O)O)c2)C1=O)C(N)=O)[C@H](C)c1ccccc1)C(=O)CN (stereo partly drawn) (H-G[Nleu][Nlys][Nrpe]GGGGG[ξC](X1)-NH2),Active
